Test results reported in patent publication US20030040510A1, “Selective estrogen receptor modulators in combination with estrogens” (Endorecherche, Inc., priority 2000, published 2003).
Values joined by “and” are separate entries in the source; they are usually repeats but may differ in a detail not shown here. Identical values can stand only once. “Also recorded” adds a separate entry of the source. Marks after values point to notes of the source that are not given here.

Key:
[1] = Concentration of EM-652 in the circulation, 6-month rat study; format: in vivo; settings: intact rats, EM-652 0.5 mg/kg daily, 6-month study
ovariectomized rats = assay: 5-diol alone or with Flutamide and/or EM-800 for 12 months in ovariectomized rats (bone mass, serum markers)
[2] = test system: bone metabolism in the rat; settings: cited from earlier work
[3] = test system: uterus and vagina of ovariectomized nude mice; assay: Uterine, vaginal and body weight in the xenograft-bearing OVX nude mice (Example 1); settings: OVX + E1
[4] = test system: breast and endometrial tissues; assay: Antiestrogens tested for SERM function and estrogenic activity in breast and endometrium
Text: As used herein, a selective estrogen receptor modulator (SERM) is a compound that either directly or through its active metabolite functions as an estrogen receptor antagonist (“antiestrogen”) in breast tissue, yet provides estrogenic or estrogen-like effect on bone tissue and on serum cholesterol levels (i.e. by reducing serum cholesterol). Non-steroidal compounds that function as estrogen receptor antagonists in vitro or in human or rat breast tissue (especially if the compound acts as an antiestrogen on human breast cancer cells) is likely to function as a SERM. Conversely, steroidal antiestrogens tend not to function as SERMs because they tend not to display any beneficial effect on serum cholesterol. […] These SERMs may be called “pure SERMs”. […] This second series of SERMs may be called “mixed SERMs”. The unwanted estrogenic activities of these “mixed SERMs”, may be inhibited by addition of pure “SERMs” as shown in FIGS. 6 and 7 in in vitro tests and in FIG. 9 in an in vivo test of breast cancer.

[5] = test system: bone metabolism in the rat; assay: Biochemical parameters of bone metabolism (urine, serum) after DHEA and/or EM-800; format: in vivo; settings: DHEA 10 mg, EM-800 75 μg
Text: Data are expressed as the means±SEM.**: P<0.01 experimental versus respective control.
It is particularly important to indicate that the combination of DHEA and EM-800 exerted unexpected beneficial effects on important biochemical parameters of bone metabolism. […] Moreover, no effect of DHEA could be detected on daily urinary calcium or phosphorus excretion (Luo et al., Endocrinology 138: 4435-4444, 1997). EM-800, decreased the urinary hydroxyproline/creatinine ratio by 48% while, similarly to DHEA, no effect of EM-800 was seen on urinary calcium or phosphorus excretion. EM-800, moreover, had no effect on serum alkaline phosphatase activity, a marker of bone formation while DHEA increased the value of the parameter by about 75% (Luo et al., Endocrinology 138: 4435-4444, 1997).

[6] = test system: rat mammary gland and endometrium; assay: 12-week EM-800 treatment of intact rats: serum 17β-estradiol, mammary gland, endometrium; format: in vivo; settings: 12 weeks
Protocol: B. Animal treated with EM-800 (0.5 mg/kg, b w per day) for 12 weeks. […] Insert.
B. Animal treated with EM-800 (0.5 mg/kg, b w per day) during 12 weeks.

[7] = test system: ZR-75-1 breast tumor xenografts; assay: Growth of human ZR-75-1 breast tumor xenografts in OVX nude mice supplemented with estrone (DHEA, EM-800; Example 1); settings: OVX + E1; for Inhibition of E1-stimulated ZR-75-1 tumor size / Average tumor weight: 9.5 months
[8] = EM-800 0.5 mg/kg per day, 0.5 mg/kg/day

For CC1=C(c2ccc(O)cc2)[C@H](c2ccc(OCCN3CCCCC3)cc2)Oc2cc(O)ccc21 [EM-652], the concentration at 6 months [1] was 0.4 ng/mL.
For CC1=C(c2ccc(OC(=O)C(C)(C)C)cc2)[C@H](c2ccc(OCCN3CCCCC3)cc2)Oc2cc(OC(=O)C(C)(C)C)ccc21 [EM-800, (+)-7-pivaloyloxy-3-(4′-pivaloyloxyphenyl)-4-methyl-2-(4″-(2′″-piperidinoethoxy)phenyl)-2H-benzopyran], the “Additional stimulation of femoral BMD compared to 5-diol alone” value (ovariectomized rats; EM-800 100 μg s.c. daily added to 5-diol) was 28.4%, the “Effect on 5-diol action on bone volume, trabecular number and trabecular separation (histomorphometry)” value (ovariectomized rats; added to 5-diol, proximal tibia) was “further enhanced” and the “Decrease of serum cholesterol” value (ovariectomized rats; addition of EM-800 to 5-diol) was 62%. For the same compound, the “Decrease of urinary hydroxyproline/creatinine ratio” value [2] was 48%, the “Effect on daily urinary calcium or phosphorus excretion” value [2] was “no effect” and the “Increase of serum alkaline phosphatase activity” value [2] was “had no effect”. It also gave a Uterine weight ([3]; EM-800 15 μg) of 49 ± 3 mg, a Vaginal weight ([3]; EM-800 15 μg) of 23 ± 1 mg and a Uterine weight ([3]; EM-800 50 μg) of 36 ± 2 mg. The Vaginal weight ([3]; EM-800 50 μg) was 15 ± 1 mg, the Uterine weight ([3]; EM-800 100 μg) was 32 ± 1 mg and the Vaginal weight ([3]; EM-800 100 μg) was 11 ± 1 mg. The “Function as SERM” value [4] was “found to function as SERMs”, the “Estrogenic activity in breast and endometrial tissues” value ([4]; physiological or pharmacological concentrations) was “do not have any estrogenic activity” and the “Serum tALP” value [5] was 114.11 ± 11.26 IU/L. For the same compound, the “Urine HP/Cr” value [5] was 6.81 ± 0.84** μmol/mmol, the Urine calcium [5] was 17.44 ± 4.5 μmol/24h/100g and the Urine phosphorus [5] was 102.03 ± 25.13 μmol/24h/100g. The “Elevation of circulating 17β-estradiol vs intact animals” value ([6]; EM-800 0.5 mg/kg orally daily) was 50%, the Endometrium histology [6, 8] was “luminal epithelium is markedly reduced in height; also recorded: marked atrophy of the endometrium” and the Mammary gland histology [6, 8] was “lobules (L) are reduced in size; also recorded: marked atrophy of the mammary gland”. For the same compound, the “Circulating levels of 17β-estradiol” value ([6]; intact rats, EM-800 0.5 mg/kg orally daily) was 143.5 ± 7.8 pg/mL, the “Inhibition of E1-stimulated ZR-75-1 tumor size” value (from here on “Inhibition”) ([7]; EM-800 15 μg oral daily) was 88% and 87.5% and the “Inhibition” value ([7]; EM-800 50 μg oral daily) was 93% and 93.5%. The “Inhibition” value ([7]; EM-800 100 μg oral daily) was 94%, the “Category of response: Partial” value ([7]; EM-800 15 μg) was 1 (5.9) Number and (%) and the “Category of response: Stable” value ([7]; EM-800 15 μg) was 5 (29.4) Number and (%). For the same compound, the Average tumor weight ([7]; EM-800 15 μg) was 0.08 ± 0.03 g, the “Category of response: Complete” value ([7]; EM-800 50 μg) was 4 (25.0) Number and (%) and the “Category of response: Partial” value ([7]; EM-800 50 μg) was 3 (18.8) Number and (%). For the same compound, the “Category of response: Progression” value ([7]; EM-800 50 μg) was 4 (25.0) Number and (%), the “Category of response: Stable” value ([7]; EM-800 50 μg) was 5 (31.2) Number and (%) and the Average tumor weight ([7]; EM-800 50 μg) was 0.03 ± 0.01 g. For the same compound, the “Category of response: Complete” value ([7]; EM-800 100 μg) was 8 (50.0) Number and (%), the “Category of response: Partial” value ([7]; EM-800 100 μg) was 0 (0) Number and (%) and the “Category of response: Progression” value ([7]; EM-800 100 μg) was 5 (31.2) Number and (%). The “Category of response: Stable” value ([7]; EM-800 100 μg) was 3 (18.8) Number and (%) and the Average tumor weight ([7]; EM-800 100 μg) was 0.04 ± 0.03 g.
